# PubChem BioAssay (NCI)
#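 In this assay, cells in 96-well plates receive the compound at five concentrations for 48 hours. Endpoints are linearly interpolated between the surrounding concentrations. At the TGI there is no net growth.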
# What was measured:
# Assay in all cases: inhibition of tumour cell growth, NCI panel, 48 h
# HCC-2998 colon = test system: HCC-2998 colon
# HOP-92 NSCLC = test system: HOP-92 NSCLC
# HS 578T breast = test system: HS 578T breast
# KM12 colon = test system: KM12 colon
# LOX IMVI melanoma = test system: LOX IMVI melanoma
# RPMI-8226 leukemia = test system: RPMI-8226 leukemia
# SF-295 CNS = test system: SF-295 CNS
# SK-OV-3 ovarian = test system: SK-OV-3 ovarian
# TK-10 renal = test system: TK-10 renal
# UACC-257 melanoma = test system: UACC-257 melanoma
SMILES,TGI (HCC-2998 colon) [µM],TGI (HOP-92 NSCLC) [µM],TGI (HS 578T breast) [µM],TGI (KM12 colon) [µM],TGI (LOX IMVI melanoma) [µM],TGI (RPMI-8226 leukemia) [µM],TGI (SF-295 CNS) [µM],TGI (SK-OV-3 ovarian) [µM],TGI (TK-10 renal) [µM],TGI (UACC-257 melanoma) [µM]
Nc1c2ccccc2nc2ccc(C(=O)Nc3ccc(S(N)(=O)=O)cc3)cc12,> 100,> 100,> 100,> 100,> 100,> 100,> 100,> 100,> 100,> 100
O=C(C(=O)n1ccc2ccccc21)c1c[nH]c2ccccc12,> 10,> 10,> 10,> 10,> 10,> 10,> 10,> 10,> 10,> 10
CN(C)/C=C/c1ccnc2c1C(=O)c1ccccc1C2=O,22.6,> 100,7.06,> 64.2,20.7,39.3,14.3,> 100,> 100,6.19
CC(C)NC(=O)OCc1c(COC(=O)NC(C)C)c(-c2ccc[n+](COC(=O)C3CCCCC3)c2)n2c1CCC2,> 100,> 100,> 100,> 100,> 100,> 100,> 100,> 100,> 100,> 100
COc1cc(C2c3cc4c(c(O)c3C(=O)C3CCC(=O)N32)OCO4)cc(OC)c1OC (centres undefined),> 100,86.7,> 100,> 100,> 100,> 100,> 100,> 100,> 100,> 100
COc1cccc(C(=O)C(O)c2cccc(OC)c2OC)c1OC (centres undefined),> 100,> 100,> 100,> 100,> 100,> 100,> 100,> 100,> 100,> 100
Fc1ccccc1N=c1oc2ccc(Br)cc2cc1-c1nc2ccccc2[nH]1,> 35.2,83.8,13.4,> 54.9,> 31.2,> 85.6,23.2,32.9,17.2,> 47.5
CCOC(=O)C1C(=O)C=C(c2cc(C)ccc2O)CC1c1cccc(Br)c1 (centres undefined),34.6,29.8,34.4,47.4,32.1,33.8,35.5,43.1,42.1,38
CC(C)(C)OC(=O)N(CCCN)CCCCN(CCCN)C(=O)OC(C)(C)C,> 100,> 100,> 100,> 100,> 100,> 100,> 100,> 100,> 100,> 100
Cc1ccc(-c2cn3c(nc4ccccc43)c(C)n2)cc1,> 100,98.1,> 100,> 100,> 100,> 100,> 100,41.5,> 100,> 100
COC(=O)[C@H]1ON2O[C@H](OC3CCCC[C@@H]3c3ccccc3)C[C@@H]3CC[C@H]1[C@@]32C (some centres undefined),> 100,> 100,> 100,> 100,> 100,> 100,> 100,> 100,> 100,> 100
O=C(O)CCCCCNC(=O)CCC(CN(CC(=O)OCc1ccccc1)CC(=O)OCc1ccccc1)N(CC(=O)OCc1ccccc1)CC(=O)OCc1ccccc1 (centres undefined),30.5,31.1,41.9,36.9,38.3,31.9,32.2,26.1,29.9,33.1
CN(C)CCCNc1ccc2nnn3c4ccc([N+](=O)[O-])cc4c(=O)c1c23,10.4,7.45,14.2,4.53,2.22,7.31,7.44,16,7.95,16.7
C=CCn1c(=O)c(-c2ccccc2)c(O)c2ccccc21,> 100,> 100,> 100,> 100,> 100,> 100,> 100,–,> 100,> 100
CCC(c1ccc(N(C)C)cc1)C1NC(=S)NC1=O (centres undefined),> 100,> 100,> 100,> 100,> 100,> 100,> 100,> 100,> 100,> 100
O=C1NC(N2CCCC(CO)C2)=N/C1=C\c1ccc(O)cc1 (centres undefined),> 100,> 100,> 100,> 100,> 100,> 100,> 100,> 100,> 100,> 100
